Assay results reported in patent US20120309699A1, “COMPOUNDS HAVING ANTI-INFLAMMATORY ACTIVITY” (Consejo Superior de Investigaciones Cientificas (CSIC), priority 2009, published 2012).

Columns and labels:
Prostaglandin E2 = assay: Prostaglandins in colonic mucosa (DSS model); format: in vivo, mice; conditions: after DSS; HED 10 mg
Protocol: A model for intestinal inflammation based on the administration of DSS (sodium dextran sulfate) to C57BL/6 mice was used. At the present time there is no consensus about which overall is the best model for experimental colitis. The DSS model has been widely used because it has clinical, morphological and analytical characteristics which up to a point are similar to those specific to patients with ulcerative colitis or Crohn's disease.
The in vivo inflammation test was carried out using duplicates separated by a number of months. In each test each group of animals (n=8) was fed a standard diet supplemented with 2.3 mg/day/kg (animal weight) of each of the compounds, depending upon the group. […]
• Monitoring of weight, food and drink ingestion. The mice in all groups were individually monitored, with weight, quantity of food ingested and water drunk each day being monitored throughout the experimental test. • Blood and water in feces. The water content of feces, as an indication of diarrhea, was evaluated using the difference in weight following evaporation in a stove. Blood was measured using reactive strips based on the guaiacol-peroxidase reaction (HealthCare Diagnosis Inc.). […] The reaction was measured using a scale from 0 (negative result) to 4 (most intense color change). • Length of colon. After sacrifice the colon was obtained from each mouse, extended and measured. […]

interleukin-8 (IL-8) = assay: Production of interleukin-8 in HT-29 cells inoculated with Listeria monocytogenes Scott A; format: cell-based, human; conditions: HT-29, Listeria monocytogenes Scott A; for Modulation of IL-8 production at increased dose: 50 and 100 μM; for Production of IL-8: 6 hours
Protocol: The human colon carcinoma cell HT-29 model was used to evaluate the ability of the compounds derived from resveratrol to modulate the production of interleukin-8 as a response to pathogenic food bacteria. […] Cell viability was observed under the microscope and the supernatants from the wells were recovered. After centrifuging (10,000 rpm/10 min) and filtering the supernatants (0.22), IL-8 was determined using the ELISA method (Human Elisa IL-8 diaclone). The concentrations of the various derivatives tested were detected in the digestive tract of experimental animals and therefore the test fell within the range of physiological achievable concentrations.

| Compound | Production of prostaglandins (PGE2) in colonic mucosa (Prostaglandin E2) | Modulation of IL-8 production at increased dose (interleukin-8 (IL-8)) | Production of IL-8 (interleukin-8 (IL-8)) |
| --- | --- | --- | --- |
| CCCC(=O)OCC1OC(Oc2cc(O)cc(/C=C/c3ccc(O)cc3)c2)C(O)C(O)C1O [BUT, trans-resveratrol-3-O-(6′-O-butanoyl)-β-D-glucopyranoside] | best results | more obvious | reduced production significantly |
| CCCCCCCC(=O)OCC1OC(Oc2cc(O)cc(/C=C/c3ccc(O)cc3)c2)C(O)C(O)C1O [OCT, trans-resveratrol-3-O-(6′-O-octanoyl)-β-D-glucopyranoside] | best results | more obvious | reduced production significantly |
